According to a melting point compilation (Tetko et al.; mined from patent text by program, amines drawn as free bases though some values may be those of a salt):

SMILES	melting point
Cn1nnc(-c2ccc(OCC(O)CNCCOc3ccc(O)c(C(N)=O)c3)cc2)n1 (centres undefined)	174 to 175 °C
COC(=O)c1[nH]c(C)c(C)c1O	170 to 172 °C
CCCN(CCC)C1Cc2cccc3[nH]c(=S)n(c23)C1 (centres undefined)	150 to 151 °C
CCCCc1nc(S)c(C(=O)OCC)n1Cc1cc2c(cc1Cl)OCO2	114 °C
N#Cc1ccc(N2CCC(F)C2)c2ccsc12 (centres undefined)	151 to 152 °C
CCOc1cc2c(c3c1OC(C)(C)C3)C(c1cccc(N3C(=O)CNC3=O)c1)=NC(C)(C)C2	202 to 204 °C
CC(C)n1cc(C(=O)NCc2ccc(Cl)cc2)c(=O)c2cc(C#CCO)sc21	190 to 196 °C
CCOC(=O)Cn1c(=O)c2cc(OC)ccc2n(Cc2ccc(Cl)cc2Cl)c1=O	167 to 168 °C
Cc1ccc(NC(=O)C(C)C)c(-c2ccnc(SC(F)(F)F)n2)c1	114 to 116 °C
CCCCCCCCCSCCCN=C=O	86 to 88 °C
O=C1C(O)N(c2ccc(Oc3ccccc3)cc2)C(=S)N1c1ccccc1 (centres undefined)	160 °C
CCCCN1C(=O)CN2C(=O)CN(c3ccc(C(C)C)cc3Br)c3nc(C)nc1c32	207 to 208 °C
O=C1C2CCC(N2)C(=O)N1Cc1ccccc1	72 °C
O=C(CCl)N1CC=C(c2cccc(C(F)(F)F)c2)n2ncc(Cl)c21	116 to 119 °C
COc1cc(F)c(C2NCCc3ccsc32)cc1OC (centres undefined)	108 to 111 °C
NS(=O)(=O)Oc1cccc(C(=O)c2ccccc2)c1	72 to 74 °C
COc1c(C(=O)O)sc(C)c1C	142 to 143 °C
CC(C)(C)OC(=O)N(C(=N)NS(=O)(=O)C(F)(F)F)C(=O)OC(C)(C)C	114 to 115 °C
C=C(C)COc1cc(C)c2c(c1C)CC(C)(C)N2C=O	83 to 95 °C
CC(=O)NC[C@H]1CN(c2ccc(N3CCC(=C(C#N)n4ccnc4)CC3)c(F)c2)C(=O)O1	196 to 198 °C
CC(C)n1cnc2c(NCc3ccccc3)nc(NCCCO)nc21	98 to 101 °C
COc1ccc2c(c1)Nc1cccc(SC)c1S2	152 to 154 °C

Now from value to molecule:

melting point	SMILES
288 to 291 °C	O=C1Nc2cc(Cl)ccc2C1c1ncnc2c1cnn2C1CCCC1 (centres undefined)
58 to 61 °C	CCOC(=O)CNCc1cc(I)ccc1N
53 to 65 °C	COc1ccccc1CN[C@H]1CCCN(CCCCCC(=O)O)[C@H]1c1ccccc1 (relative stereo)
173 to 176 °C	CC(C)(C)CN1C(=O)[C@@H](CC=O)O[C@H](c2ccccc2Cl)c2cc(Cl)ccc21 (relative stereo)
55 to 58 °C	CCOc1cc(Br)cc2c1OC(C)(C)C2
167 to 169 °C	COC(=O)C1=C(C)NC(C)=C(C(=O)OCCCCCCOc2cc(-c3ccc4c(c3)OCO4)[nH]n2)C1c1cccc([N+](=O)[O-])c1 (centres undefined)
172 to 174 °C	COCCOc1ccc2c(c1)OCC21C(=O)Nc2ccccc21 (centres undefined)
188 to 190 °C	Cc1cccc(C)c1N1CCN(c2c(C)cccc2C)C1=N
134 to 136 °C	CCC(Oc1c(C)cc(C)cc1C)C(=O)OC1CC(O)C=C2C=CC(C)C(CCC3CC(O)CC(=O)O3)C21 (mixture of isomers)
103 to 111 °C	COCC(C)Nc1cc2c(=O)n(NS(C)(=O)=O)c(=O)[nH]c2cc1[N+](=O)[O-] (centres undefined)
225 to 226 °C	COc1ccccc1N1CCN(S(=O)(=O)c2ccc(/C=C/C(=O)NO)cc2)CC1
167 to 173 °C	O=C(C1CCCCCC1)N1c2ccccc2CCC1CN1CCN(c2cccc3[nH]ccc23)CC1 (centres undefined)
94 to 95 °C	COCC(C)Nc1nccc(Oc2ccc(NC(=O)c3cc(F)cc(N4CCCCC4)c3)c3ccccc23)n1 (centres undefined)
78 °C	C=Cc1ccc(OC(C)C)c(OCCN2C(=O)c3ccccc3C2=O)c1
310 to 312 °C	O=C1OC(=O)c2cc3ccc(C(F)(F)F)cc3c3cccc1c23
168 to 171 °C	COc1ccc(-c2cn(-c3nc(C)c(C(=O)NCc4ccccc4)s3)nn2)cc1
172 °C	CN1CCC(=C2c3ccccc3CCn3cc(-c4ccccc4)nc32)CC1
